Data on 1 compound can be found in patent US20220213092A1, “BICYCLIC PYRAZOLE BRUTON'S TYROSINE KINASE INHIBITORS” (AbbVie Inc., priority 2020, published 2022).

The target in data set [1] is ERBB4 (Homo sapiens, UniProt Q15303). The data set can be described thus: biochemical. As to the method:
Kinase activity, unless otherwise indicated, was measured in vitro using an electrophoretic mobility shift assay (MSA). The phosphorylation of a peptide substrate by BTK and other kinases was measured. The kinase reactions were assembled in a total volume of 25 μL per well in 384 well plates. The following was added to each well: compound buffer (or control); enzyme buffer; and substrate buffer, as further described below.
Enzyme and compound/inhibitor were optionally pre-incubated. To each well was added: 8 μL of 2.5×ATP and substrate in 1× Master Buffer (1× Master Buffer as described above). The plate was incubated at room temperature for 3 hours. […] OG488 was Oregon Green dye, which was conjugated to the peptide substrate. […] The kinase activity for the kinases in Table 3 were measured at 3 hours incubation time, except that in the case of MAP2K1 and MAP2K2 assay, pre-activation of ERK was done for 30 min with 6 μM of ATP, and then the detection of activated ERK in the presence of compounds was done after 60 minutes of incubation.
The terminated reactions were analyzed using a 12 channel LABCHIP® 3000 microfluidic detection instrument (available from Caliper Life Sciences, Waltham, Mass.). […] Change in the relative fluorescence intensity of the substrate and product peaks was the parameter measured, reflecting enzyme activity. […]

Data set [2] concerns recombinant human CYP1A2, 2B6, 2C8, 2C9, 2C19, 2D6, 3A4, and FMO3. The data set can be described thus: Human recombinant CYP and FMO3 phenotyping. The format is in vitro ADME. To be noted: of CYPs tested (1A2, 2B6, 2C8, 2C9, 2D6, 3A4) and FMO3. As for the experimental part:
The involvement of CYPs and FMO3 in the metabolism of Compound 6 was evaluated using recombinant human CYP1A2, 2B6, 2C8, 2C9, 2C19, 2D6, 3A4, and FMO3 (CYPs and FMO3 from Corning Life Sciences). Incubations contained 0.5 μM of Compound 6, 100 pmol/mL of each CYP isoform, or 0.5 mg/mL of FMO3 isoform, and 1 mM NADPH cofactor in 50 mM potassium phosphate buffer at pH 7.4. All incubations were pre-warmed at 37° C. for 10 minutes, followed by addition of cofactor to initiate the reaction. Incubations were carried out for 60 minutes at 37° C. At each time point (0, 5, 10, 20, 30 and 60 minutes), an aliquot of sample in the incubation pleases was taken and dispersed into a quench plate containing 3-fold volume of acetonitrile and carbutamide as an internal standard. The samples were centrifuged, and the supernatant was analyzed using LC-MS/MS.
Quantitation of the substrate depletion in recombinant CYPs and FMO3 phenotyping, chemical inhibition in hepatocytes, and enzyme kinetics assays were analyzed by monitoring substrate depletion using LC-MS/MS.
The intrinsic clearance of Compound 6 in rCYP and hepatocytes was determined by integrating the parent peak on the chromatograms, and the extent of substrate depletion measured by comparing parent peak area loss over time. […]

Chain of ERBB4 (Q15303 26-1308, species assumed): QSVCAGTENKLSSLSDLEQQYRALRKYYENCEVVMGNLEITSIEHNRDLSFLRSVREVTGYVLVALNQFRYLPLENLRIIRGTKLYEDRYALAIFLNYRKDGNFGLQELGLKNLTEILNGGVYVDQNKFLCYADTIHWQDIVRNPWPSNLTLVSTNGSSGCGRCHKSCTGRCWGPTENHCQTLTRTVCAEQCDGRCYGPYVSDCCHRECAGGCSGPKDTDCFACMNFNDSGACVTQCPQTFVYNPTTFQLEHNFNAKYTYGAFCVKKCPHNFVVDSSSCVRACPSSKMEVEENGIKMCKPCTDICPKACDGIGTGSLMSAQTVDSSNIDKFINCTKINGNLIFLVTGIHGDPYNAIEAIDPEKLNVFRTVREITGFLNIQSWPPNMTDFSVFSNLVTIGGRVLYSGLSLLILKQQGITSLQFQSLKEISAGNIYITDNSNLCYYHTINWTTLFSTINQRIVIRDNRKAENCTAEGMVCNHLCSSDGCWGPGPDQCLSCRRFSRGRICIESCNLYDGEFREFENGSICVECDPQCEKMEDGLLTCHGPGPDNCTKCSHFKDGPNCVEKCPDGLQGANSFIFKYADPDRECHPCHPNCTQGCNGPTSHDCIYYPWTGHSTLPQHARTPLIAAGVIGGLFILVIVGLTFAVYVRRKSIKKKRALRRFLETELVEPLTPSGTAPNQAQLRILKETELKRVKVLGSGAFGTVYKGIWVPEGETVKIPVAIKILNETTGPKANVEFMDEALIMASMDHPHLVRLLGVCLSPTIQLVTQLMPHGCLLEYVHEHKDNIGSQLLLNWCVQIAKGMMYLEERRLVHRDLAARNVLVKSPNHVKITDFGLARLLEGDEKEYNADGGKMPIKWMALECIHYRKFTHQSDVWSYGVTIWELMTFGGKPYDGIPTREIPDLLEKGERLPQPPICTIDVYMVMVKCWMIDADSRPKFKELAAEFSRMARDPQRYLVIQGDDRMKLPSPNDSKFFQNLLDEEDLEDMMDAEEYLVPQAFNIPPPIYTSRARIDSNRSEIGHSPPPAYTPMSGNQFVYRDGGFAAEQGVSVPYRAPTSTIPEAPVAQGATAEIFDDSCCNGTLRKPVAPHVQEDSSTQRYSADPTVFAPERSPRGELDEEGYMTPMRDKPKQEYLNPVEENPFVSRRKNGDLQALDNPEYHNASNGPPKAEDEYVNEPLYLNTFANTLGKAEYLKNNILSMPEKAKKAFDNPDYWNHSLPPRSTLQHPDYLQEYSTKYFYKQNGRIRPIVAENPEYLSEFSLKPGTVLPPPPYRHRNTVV

For the compound `C=CC(=O)N1CCN([C@@H]2CCNc3c2nn(-c2ccc(Oc4ccccc4)cc2)c3C(N)=O)CC1` [Example 6, (7R)-2-(4-phenoxyphenyl)-7-[4-(prop-2-enoyl)piperazin-1-yl]-4,5,6,7-tetrahydro-2H-pyrazolo[4,3-b]pyridine-3-carboxamide], half-maximal inhibition in data set [1] (IC50) required 757 nM. Also, in data set [2], the “major contributing enzyme in metabolism” value is “CYP3A4 was identified as the major contributing enzyme”.

The term IC50 denotes the concentration at which inhibition is half-maximal. High values mean lower potency, low ones higher potency.
